The text below walks through data of patent US4499187A, “Method for evaluating mutagenicity” (Mobil Oil Corporation, priority 1984, dated 1985).

Series [1] relates to Salmonella typhimurium tester strain TA98. Briefly: Modified Ames test with Aroclor 1254-induced rat liver S9 on DMSO extract (specific mutagenic activity, revertants). The class given is cell-based. How it is done: (§1) The hydrocarbon mixture to be assayed is extracted with an equal volume of DMSO five times, and the extracts are combined. The combined extract, which serves as surrogate for the hydrocarbon itself, is assayed using Salmonella typhimurium tester strain TA98 together with Aroclor 1254-induced rat liver S9. Prior to use, the rat liver S9 homogenate, obtained from Litton Bionetics, Kensington, Md., was stored at -80° C., and thawed on ice for 4 hours prior to use.
The assay is conducted by first introducing into a series of sterile capped culture tubes up to about eight different doses of the combined extract. The doses, usually in the range of 10 to 75 microliters, are selected to delimit the linear portion of the doseresponse curve. Duplicate or triplicate tubes are prepared for each dose level. […] Plates are incubated inverted at 37° C. in the dark and revertant colonies are counted 48 hours later.
Spontaneous reversion rates (47±8.5) and negative (solvent) control rates (47±8.5) were determined for all tests. […]
Specific mutagenic activity is assessed from the slope of the linear portion of the dose response curve that is obtained, and may be reported as revertants per μl of extract. […]
In general terms: The Ames test uses bacterial strains that need an amino acid and regain growth without it when mutated back.

For series [2] the test system is unchanged. Briefly: Modified Ames test with induced hamster liver S9 (TA98 revertants/plate). It is filed as cell-based. Conditions: 2 ug per plate. Here is the method: as §1
The assay is conducted by first introducing into a series of sterile capped culture tubes up to about eight different doses of the combined extract. The doses, usually in the range of 10 to 75 microliters, are selected to delimit the linear portion of the doseresponse curve. Duplicate or triplicate tubes are prepared for each dose level. This is followed by 0.5 ml S9 mix containing 400 μl S9, 8 μM MgCl2, 33 μM KCl, 5 μM glucose-6-phosphate, 4 μM NADP and 100 μM sodium phosphate (pH 7.4), and 0.1 ml Salmonella typhimurium broth culture (1×10^9 cells/ml). The cultures are incubated at 37° C. with agitation for 20 minutes, following which top agar (0.6% agar, 0.5% NaCl, 0.5 mM histidine-biotin) is added. The tubes are vortexed to ensure adequate mixing and the contents overlaid on 30 ml Vogel-Bonner minimal media plates. Plates are incubated inverted at 37° C. in the dark and revertant colonies are counted 48 hours later. […]

On to `Nc1ccc2cc3ccccc3cc2c1` [2-aminoanthracene], for which, in series [1] (2 ug per plate, 400 ul rat S9), the “TA98 Revertants/Plate, 400 ul Rat S9” value turned out to be 313 Revertants/Plate. For the same compound, the “revertants (positive control)” value in series [1] (2 μg/plate, TA98, rat liver S9) turned out to be 441±285 revertants. Also, the “TA98 Revertants/Plate, 400 ul Hamster S9” value in series [2] (400 ul hamster S9) was found to be 639 Revertants/Plate. In addition, the “TA98 Revertants/Plate, 400 ul Hamster S9 + 2xNADP” value in series [2] (400 ul hamster S9 + 2xNADP (8 mM)) stood at 977 Revertants/Plate.
